Entries after “also recorded” stand apart in the source; their conditions may differ.
Key:
MDA231 cells = assay: MDA231 breast cancer cell growth, MTT assay; assay type: cell-based, human; conditions: single agent, 50 μg/ml and 100 μg/ml
Experimental: For cell proliferation assays, cells were grown in 10% FCS culture medium containing various amounts of IFNs and/or sodium stibogluconate in 96 well plates and cultured at 37° C. for 3 or 6 days as indicated. The numbers of viable cells in proliferation assays were determined by MTT assays as described in Phatak et al., J. Immunol. 167, 3391 (2001).

NB4 cells = assay: NB4 cell cycle analysis and Annexin V/propidium iodide assay; assay type: cell-based, human
Experimental: […] Briefly, the cells were fixed in cold ethanol and incubated for 30 minutes at 4° C. in the dark with a solution of […], 1 mg/ml RNase and 0.1% NP-40. Analysis was performed immediately after staining using the CELLFIT program (Becton Dickinson, Mountain View, Calif.).
] Annexin V staining of exposed membrane phospholipid phosphatidylserine (PS) was done using the Annexin V assay kit (Pharmingen, San Diego, Calif.). Briefly, NB4 cells were cultured in the 10% FCS RPMI 1640 medium in the absence or presence of sodium stibogluconate (250 µg/ml) or ATRA (1 µM) for 3 days. Cells were then washed in PBS twice and stained in binding buffer (10 mM Hepes, pH 7.4; 140 mM NaCl; 2.5 mM CaCl2) containing Annexin V-FITC and propidium iodide for 15 min. The reaction was stopped by adding 10 volumes of binding buffer and analyzed by FACS (Becton Dickinson Facsvantage).

Renca cells = assay: Renca cell growth in culture, MTT assay; assay type: cell-based, murine; conditions: SSG 6.25-200 μg/ml, 6 days; listed as SSG
Description: Renca (Murphy, G. P., and W. J. Hrushesky. 1973. A murine renal cell carcinoma. J Natl Cancer Inst 50:1013), Jurkat (Gillis, S., and J. Watson. 1980. Biochemical and biological characterization of lymphocyte regulatory molecules. V. Identification of an interleukin 2-producing human leukemia T cell line. J Exp Med 152:1709) and WM9 (Forsberg, K., 1. Valyi-Nagy, C. H. Heldin, M. Herlyn, and B. Westermark. 1993. Platelet-derived growth factor (PDGF) in oncogenesis: development of a vascular connective tissue stroma in xenotransplanted human melanoma producing PDGF-BB. Proc Natl Acad Sci USA 90:393) cell lines were obtained from a colleague at the Cleveland Clinic Foundation (CCF) and cultured in RPMI 1640 medium supplemented with 10% fetal calf serum (FCS). […] SSG has been described previously (Yi, T., M. K. Pathak, D. J. Lindner, M. E. Ketterer, C. Farver, and E. C. Borden. 2002. Anticancer activity of sodium stibogluconate in synergy with IFNs. J Immunol 169:5978). For cell growth inhibition assays, cells were cultured in absence or presence of various amounts of SSG for 6 days with viable cells quantified by MTT assays as described elsewhere (Pathak, M. K., and T. Yi. 2001. Sodium stibogluconate is a potent inhibitor of protein tyrosine phosphatases and augments cytokine responses in hemopoietic cell lines. J Immunol 167:3391).

SMILES: O.O.O.O.O.O.O.O.O.O=C([O-])[C@@H]1[O][Sb]2([O-])([O][Sb]34([OH])[O][C@H]([C@H](O)CO)[C@H]([O]3)[C@H](C(=O)[O-])[O]4)[O][C@H]([C@H](O)CO)[C@@H]1[O]2.[Na+].[Na+].[Na+] [sodium stibogluconate]
- MDA231 cells in day 6 culture (MDA231 cells): killed all cells; also recorded: complete or near complete killing
- Annexin V staining of NB4 cells (NB4 cells; 250 μg/ml for 6 days): stained positive by Annexin V
- cell cycle distribution of NB4 cells (NB4 cells; 3 days, sodium stibogluconate 250 μg/ml, ATRA 1 μM): significant increase of cells at S phase
- Renca cell growth in culture (Renca cells): failed to inhibit Renca cell proliferation in culture

From patent publication US20080089860A1, “Therapeutic compositions and methods useful in treating cancer” (priority 2006, published 2008)
